Experimental data: article PMC5865651, “Novel inhibitor candidates of TRPV2 prevent damage of dystrophic myocytes and ameliorate against dilated cardiomyopathy in a hamster model” (Oncotarget, 2018)
Blank lines part the entries; values can stand above or below the compound they belong to.

How the values were obtained:
human TRPV2 (hTRPV2) [1] = target: T1, human TRPV2 (hTRPV2) (Homo sapiens, UniProt Q9Y5S1); details: cited from earlier work
T1 sequence (Q9Y5S1 1-764): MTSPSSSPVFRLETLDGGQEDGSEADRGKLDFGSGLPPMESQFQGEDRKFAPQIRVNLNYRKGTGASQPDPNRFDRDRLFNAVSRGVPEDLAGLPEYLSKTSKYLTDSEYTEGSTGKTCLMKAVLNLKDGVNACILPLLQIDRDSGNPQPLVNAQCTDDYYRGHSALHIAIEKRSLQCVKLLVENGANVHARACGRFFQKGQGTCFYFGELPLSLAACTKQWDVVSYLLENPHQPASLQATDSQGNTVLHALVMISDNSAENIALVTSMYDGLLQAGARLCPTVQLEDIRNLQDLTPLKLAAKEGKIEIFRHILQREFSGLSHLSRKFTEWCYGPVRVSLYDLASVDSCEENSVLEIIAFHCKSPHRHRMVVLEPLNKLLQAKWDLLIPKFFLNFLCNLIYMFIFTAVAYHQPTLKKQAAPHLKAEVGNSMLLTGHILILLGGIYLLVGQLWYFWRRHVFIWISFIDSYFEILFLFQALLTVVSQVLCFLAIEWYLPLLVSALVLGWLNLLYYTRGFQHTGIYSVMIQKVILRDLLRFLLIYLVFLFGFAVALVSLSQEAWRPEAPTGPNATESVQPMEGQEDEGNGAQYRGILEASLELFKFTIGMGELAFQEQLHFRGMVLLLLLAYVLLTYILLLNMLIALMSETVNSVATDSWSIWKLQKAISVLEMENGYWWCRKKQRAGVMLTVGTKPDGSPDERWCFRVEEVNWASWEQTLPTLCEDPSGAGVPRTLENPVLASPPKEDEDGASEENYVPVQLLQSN

human TRPV2 (hTRPV2) [2] = target: T1, human TRPV2 (hTRPV2); assay: CaCl2 (5 mM)-induced increase in [Ca2+]i in CHO cells expressing hTRPV2; format: cell-based; set-up: expressed in transfected cells; host or cells: CHO cells; details: compound 15 μM
Method: Figure 4 Effects of inhibitor compounds on the Ca^2+ response of cells expressing hTRPV1, hTRPV2, or hTRPC1 (A) Effect of compounds on CaCl2 (5 mM)-induced peak fluorescence ratio in non-transfected (nt) or hTRPV2-transfected CHO cells. The extracellular Ca^2+-dependent increase in the ratio of fura-2 fluorescence intensity at 340/380 nm (ΔR, 2 min after addition of chemicals) was plotted as ΔR/R0 after normalising to the initial fluorescence ratio (R0). […] Solid bar, no inhibitor. (B) Effect of compounds on 2-APB (1 mM)/high extracellular CaCl2-induced peak fluorescence ratio in nt or hTRPV1-transfected HEK293 cells. […] (C) Effect of compounds on store-operated Ca^2+ entry in nt or hTRPC1-transfected HEK293 cells. Cells were treated with the endoplasmic reticulum Ca^2+ pump inhibitor thapsigargin and exposed to CaCl2 and the indicated compounds. ΔR was measured 2 min after the addition of CaCl2. […]
[Ca^2+]i was measured by a ratiometric fluorescence method as previously described. […] Fura-2-AM fluorescence was measured using an Aquacosmos fluorescence image processor (Hamamatsu Photonics, Hamamatsu, Japan). The time-course data are presented as the ratio of fluorescence at an excitation wavelength of 340 nm to that at 380 nm. The increase in the fluorescence ratio induced by the TRPV2 agonist 2-APB or high extracellular Ca^2+ (ΔR) was normalized to the initial ratio (R0) before stimulation. […]

J2N-k myocytes = assay: Stretch-induced CK release from J2N-k myocytes; format: cell-based, hamster; details: 30 μM, 30 min pretreatment, cyclic stretch 20% elongation 1 h
Method: Creatine phosphokinase (CK) activity in the medium was determined using an in vitro colorimetric assay kit (CK Test Kit; Wako Pure Chemical Industries, Ltd., Osaka, Japan) according to the manufacturer's protocol The cTN-I level in the serum was measured, while quantitative immunoblotting and immunocytochemistry were performed as previously described. Protein concentration was measured using the bicinchoninic acid assay (Pierce Chemical Co., Rockford, IL, USA) with bovine serum albumin as the standard. All histochemical and physiological analyses were performed by investigators blinded to the drug treatments. Unless otherwise stated, results are presented as the mean ± SD of at least 5 determinations. The unpaired Student's t-test and one-way ANOVA followed by Dunnett's test were used to analyse the data. Values of P < 0.05 (indicated as asterisks in the figures) were considered statistically significant. All cellular measurements were repeated at least 5 times. Representative data are shown.

[3] = tested on: dystrophic myocytes from J2N-k hamsters; assay: Ca2+ response in cultured myocytes from dystrophic J2N-k hamsters; format: cell-based, hamster; details: compound 15 μM

Compound: NCCOB(c1ccccc1)c1ccccc1 [2-APB, 2-aminoethoxydiphenylborate]
response of hTRPV2 to 2-APB (human TRPV2 (hTRPV2) [1]): unresponsive

effect on Ca2+ influx in response to CaCl2 exposure (human TRPV2 (hTRPV2) [2]): markedly inhibited
Compound: COc1cc(/C=C(\C#N)C(=O)Nc2ccccc2C(=O)O)cc(Cl)c1OC [A3, 2-[(2E)-3-(3-Chloro-4,5-dimethoxyphenyl)-2-cyanoprop-2-enoylamino]benzoic acid]
reduction of stretch-induced CK release (J2N-k myocytes): up to 70%

effect on Ca2+ influx in response to CaCl2 exposure (human TRPV2 (hTRPV2) [2]): not
Compound: COc1cccc(OCCn2cc(/C=N/n3cnnc3)c3ccccc32)c1 [B6, 1-{2-[3-((1E)-2-(1,2,4-triazol-4-yl)-2-azavinyl)indolyl]ethoxy}-3-methoxybenzene]

Compound: CCN1C=CC(=CC=C(C=Cc2cc[n+](CC)c3ccccc23)c2cc[n+](CC)c3ccccc23)c2ccccc21.[I-].[I-] [lumin, 4,4′-[3-[2-[1-ethyl-4(1H)-quinolinylidene]ethylidene]-1-propene-1,3-diyl]bis(1-ethylquinolinium) diiodide]
effect on high extracellular Ca2+ (5 mM)-induced increase in [Ca2+]i [3]: inhibited
effect on 2-APB-induced increase in [Ca2+]i ([3]; 2-APB 0.5 mM, CaCl2 5 mM, pH 6.5): inhibited
